What was measured:
Assay in all cases: Kinobeads competition binding, HL60 cell lysate
Parameters in all cases: endogenous in cells
Conditions in all cases: 10 μM free compound
[1] = biological target: T1, ULK3 (Homo sapiens, UniProt Q6PHR2)
T1 sequence (Q6PHR2 1-472): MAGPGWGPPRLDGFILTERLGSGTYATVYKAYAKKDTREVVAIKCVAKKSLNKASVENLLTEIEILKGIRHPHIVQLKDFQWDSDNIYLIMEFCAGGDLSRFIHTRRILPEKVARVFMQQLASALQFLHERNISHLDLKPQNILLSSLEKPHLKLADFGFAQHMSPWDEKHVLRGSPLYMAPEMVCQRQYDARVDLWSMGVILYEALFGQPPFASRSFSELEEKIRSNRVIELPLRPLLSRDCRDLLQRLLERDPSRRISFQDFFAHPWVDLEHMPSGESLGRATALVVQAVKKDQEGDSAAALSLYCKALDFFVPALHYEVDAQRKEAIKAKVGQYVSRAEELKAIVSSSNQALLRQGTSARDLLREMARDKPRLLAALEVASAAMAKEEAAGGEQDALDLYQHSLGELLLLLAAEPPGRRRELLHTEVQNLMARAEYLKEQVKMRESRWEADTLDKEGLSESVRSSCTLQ
Description: (§1) To one aliquot of cell lysate 10 μM of the free compound (FIG. 3, CZC31326) was added and allowed to bind to proteins in the lysate. Then the affinity matrix with the immobilized compound (Example 1) was added to capture proteins that were not interacting with the previously added free compound. Beads were separated from the lysate and bead bound proteins were eluted in SDS sample buffer and subsequently separated by SDS-Polyacrylamide gel electrophoresis (FIG. 4). Suitable gel bands were cut out and subjected to in-gel proteolytic digestion with trypsin. The second lysate aliquot was processed identically, however no free compound was added (DMSO solvent control). Peptides originating from samples 1 and 2 were labeled with iTRAQ reagents (iTRAQ 114 and iTRAQ 117) and the combined samples were analyzed with a nano-flow liquid chromatography system coupled online to a tandem mass spectrometer (LC-MS/MS) experiment followed by iTRAQ reporter ion quantification in the MS/MS spectra (Ross et al., 2004. Mol. Cell. Proteomics 3(12):1154-1169). Further experimental protocols can be found in WO2006/134056 and a previous publication (Bantscheff et al., 2007. Nature Biotechnology 25, 1035-1044). Sepharose-beads with the immobilized compound (100 μl beads per pull-down experiment) were equilibrated in lysis buffer and incubated with a cell lysate sample containing 50 mg of protein on an end-over-end shaker (Roto Shake Genie, Scientific Industries Inc.) for 2 hours at 4° C. Beads were collected, transferred to Mobicol-columns (MoBiTech 10055) and washed with 10 ml lysis buffer containing 0.4% NP40 detergent, followed by 5 ml lysis buffer containing 0.2% detergent. To elute bound proteins, 60 μl 2×SDS sample buffer was added to the column. The column was incubated for 30 minutes at 50° C. and the eluate was transferred to a siliconized microfuge tube by centrifugation. Proteins were then alkylated with 108 mM iodoacetamid. Proteins were then separated by SDS-Polyacrylamide electrophoresis (SDS-PAGE). The peptide extracts of samples treated with 10 μM of free compound (CZC31326) and the solvent control (0.5% DMSO) were treated with different variants of the isobaric tagging reagent (iTRAQ Reagents Multiplex Kit, part number 4352135, Applied Biosystems, Foster City, Calif., USA). The iTRAQ reagents are a set of multiplexed, amine-specific, stable isotope reagents that can label peptides on amino groups in up to four different biological samples enabling simultaneous identification and quantitation of peptides. The iTRAQ reagents were used according to instructions provided by the manufacturer. The samples were resuspended in 10 μl 50 mM TEAB solution, pH 8.5 and 10 μl ethanol were added. The iTRAQ reagent was dissolved in 120 μl ethanol and 10 μl of reagent solution were added to the sample. The labeling reaction was performed at room temperature for one hour on a horizontal shaker and stopped by adding 5 μl of 100 mM TEAB and 100 mM glycine in water. The two labeled sampled were then combined, dried in a vacuum centrifuge and resuspended in 10 μl of 0.1% formic acid in water. Relative protein quantitation was performed using peak areas of iTRAQ reporter ion signals essentially as described in an earlier publication (Bantscheff et al., 2007. Nature Biotechnology 25, 1035-1044).

[2] = biological target: PLK1 (Homo sapiens, UniProt P53350)
Description: as §1

[3] = biological target: FES (Homo sapiens, UniProt P07332)
Description: as §1

[4] = biological target: T2, NEK9 (Homo sapiens, UniProt Q8TD19)
T2 sequence (Q8TD19 1-979): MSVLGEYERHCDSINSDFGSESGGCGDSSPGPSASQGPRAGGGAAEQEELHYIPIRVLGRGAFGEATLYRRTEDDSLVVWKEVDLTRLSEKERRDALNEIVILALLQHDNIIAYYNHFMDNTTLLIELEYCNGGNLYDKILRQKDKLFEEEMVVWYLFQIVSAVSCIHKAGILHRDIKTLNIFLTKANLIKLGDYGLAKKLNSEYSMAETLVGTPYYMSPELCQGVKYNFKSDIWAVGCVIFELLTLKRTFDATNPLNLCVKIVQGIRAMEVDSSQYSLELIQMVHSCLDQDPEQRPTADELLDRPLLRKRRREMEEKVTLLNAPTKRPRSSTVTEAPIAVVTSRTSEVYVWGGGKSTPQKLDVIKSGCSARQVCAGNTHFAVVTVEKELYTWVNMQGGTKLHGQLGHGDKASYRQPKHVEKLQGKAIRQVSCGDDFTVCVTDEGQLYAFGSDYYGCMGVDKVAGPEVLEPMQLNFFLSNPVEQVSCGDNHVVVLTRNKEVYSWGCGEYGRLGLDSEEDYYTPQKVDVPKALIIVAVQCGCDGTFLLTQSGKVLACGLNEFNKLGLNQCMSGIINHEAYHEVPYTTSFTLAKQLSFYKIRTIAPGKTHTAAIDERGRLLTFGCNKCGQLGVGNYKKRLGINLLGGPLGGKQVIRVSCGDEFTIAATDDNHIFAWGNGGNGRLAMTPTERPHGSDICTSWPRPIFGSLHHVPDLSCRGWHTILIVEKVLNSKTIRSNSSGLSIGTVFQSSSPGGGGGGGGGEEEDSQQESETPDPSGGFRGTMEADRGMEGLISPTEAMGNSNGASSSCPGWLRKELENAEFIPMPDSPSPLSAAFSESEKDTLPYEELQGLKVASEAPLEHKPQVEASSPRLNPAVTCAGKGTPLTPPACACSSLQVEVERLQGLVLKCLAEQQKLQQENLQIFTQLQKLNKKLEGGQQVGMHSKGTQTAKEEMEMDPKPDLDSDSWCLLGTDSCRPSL
Description: as §1

[5] = biological target: PKCa (Homo sapiens, UniProt P17252)
Description: as §1

Sequence of PLK1 (P53350 whole entry): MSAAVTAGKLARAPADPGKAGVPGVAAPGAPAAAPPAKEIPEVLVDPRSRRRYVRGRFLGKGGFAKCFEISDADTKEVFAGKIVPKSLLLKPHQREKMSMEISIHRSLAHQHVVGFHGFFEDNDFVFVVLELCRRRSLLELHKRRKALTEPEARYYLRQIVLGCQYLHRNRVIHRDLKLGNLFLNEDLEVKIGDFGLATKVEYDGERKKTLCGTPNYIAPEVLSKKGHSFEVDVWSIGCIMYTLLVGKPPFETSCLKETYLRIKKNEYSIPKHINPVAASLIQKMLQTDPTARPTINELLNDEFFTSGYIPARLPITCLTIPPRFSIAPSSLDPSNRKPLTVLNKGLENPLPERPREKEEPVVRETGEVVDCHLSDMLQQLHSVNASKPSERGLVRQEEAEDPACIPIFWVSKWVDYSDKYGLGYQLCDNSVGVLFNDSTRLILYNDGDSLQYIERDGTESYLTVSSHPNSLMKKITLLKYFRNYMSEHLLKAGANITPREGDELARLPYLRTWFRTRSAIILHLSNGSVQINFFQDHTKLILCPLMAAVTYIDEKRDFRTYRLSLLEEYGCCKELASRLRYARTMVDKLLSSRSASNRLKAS
Sequence of FES (P07332 whole entry): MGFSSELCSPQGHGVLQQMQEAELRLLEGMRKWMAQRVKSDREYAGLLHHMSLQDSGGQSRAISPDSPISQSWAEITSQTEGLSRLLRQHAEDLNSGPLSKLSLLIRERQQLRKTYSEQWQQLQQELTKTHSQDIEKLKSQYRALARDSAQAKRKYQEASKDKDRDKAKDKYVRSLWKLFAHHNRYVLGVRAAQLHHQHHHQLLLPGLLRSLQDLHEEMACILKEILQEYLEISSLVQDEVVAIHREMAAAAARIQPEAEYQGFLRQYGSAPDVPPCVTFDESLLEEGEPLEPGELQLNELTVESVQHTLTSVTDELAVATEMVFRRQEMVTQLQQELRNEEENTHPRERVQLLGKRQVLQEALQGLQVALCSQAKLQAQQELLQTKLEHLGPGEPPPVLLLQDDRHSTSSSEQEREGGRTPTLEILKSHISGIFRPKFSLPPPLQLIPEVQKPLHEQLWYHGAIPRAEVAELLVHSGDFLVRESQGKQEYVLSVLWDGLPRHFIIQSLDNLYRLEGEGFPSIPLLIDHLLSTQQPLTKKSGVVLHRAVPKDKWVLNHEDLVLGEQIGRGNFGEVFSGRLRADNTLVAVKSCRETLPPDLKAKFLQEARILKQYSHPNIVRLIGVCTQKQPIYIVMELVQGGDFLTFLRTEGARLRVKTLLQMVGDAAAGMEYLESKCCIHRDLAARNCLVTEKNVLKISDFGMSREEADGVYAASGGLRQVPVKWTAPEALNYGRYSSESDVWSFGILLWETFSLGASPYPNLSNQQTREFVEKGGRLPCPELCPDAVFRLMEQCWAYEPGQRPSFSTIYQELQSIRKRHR

CS(=O)(=O)Nc1ccccc1Nc1nc(Nc2cccc(OCCN)c2)ncc1Cl [CZC31326, N-(2-(2-(3-(2-aminoethoxy)phenylamino)-5-chloropyrimidin-4-ylamino)phenyl)methanesulfonamide]
Competition % [1]: 97.7%
inhibition at 10 µM [2]: 97.8%
inhibition at 10 µM [3]: 96.3%
inhibition at 10 µM [4]: 93%
inhibition at 10 µM [5]: 96.2%

Source: patent US20120270237A9, “METHODS FOR THE IDENTIFICATION OF KINASE INTERACTING MOLECULES AND FOR THE PURIFICATION OF KINASE PROTEINS” (Cellzone AG, priority 2009, published 2012)
